This series concerns the target T1, RIG-I (Homo sapiens, UniProt O95786).
T1 construct: HEK293 cells overexpressing either the full length RIG-I; host or cells: HEK293; HCT116 also for the qRT-PCR validation
T1 sequence (O95786 1-925): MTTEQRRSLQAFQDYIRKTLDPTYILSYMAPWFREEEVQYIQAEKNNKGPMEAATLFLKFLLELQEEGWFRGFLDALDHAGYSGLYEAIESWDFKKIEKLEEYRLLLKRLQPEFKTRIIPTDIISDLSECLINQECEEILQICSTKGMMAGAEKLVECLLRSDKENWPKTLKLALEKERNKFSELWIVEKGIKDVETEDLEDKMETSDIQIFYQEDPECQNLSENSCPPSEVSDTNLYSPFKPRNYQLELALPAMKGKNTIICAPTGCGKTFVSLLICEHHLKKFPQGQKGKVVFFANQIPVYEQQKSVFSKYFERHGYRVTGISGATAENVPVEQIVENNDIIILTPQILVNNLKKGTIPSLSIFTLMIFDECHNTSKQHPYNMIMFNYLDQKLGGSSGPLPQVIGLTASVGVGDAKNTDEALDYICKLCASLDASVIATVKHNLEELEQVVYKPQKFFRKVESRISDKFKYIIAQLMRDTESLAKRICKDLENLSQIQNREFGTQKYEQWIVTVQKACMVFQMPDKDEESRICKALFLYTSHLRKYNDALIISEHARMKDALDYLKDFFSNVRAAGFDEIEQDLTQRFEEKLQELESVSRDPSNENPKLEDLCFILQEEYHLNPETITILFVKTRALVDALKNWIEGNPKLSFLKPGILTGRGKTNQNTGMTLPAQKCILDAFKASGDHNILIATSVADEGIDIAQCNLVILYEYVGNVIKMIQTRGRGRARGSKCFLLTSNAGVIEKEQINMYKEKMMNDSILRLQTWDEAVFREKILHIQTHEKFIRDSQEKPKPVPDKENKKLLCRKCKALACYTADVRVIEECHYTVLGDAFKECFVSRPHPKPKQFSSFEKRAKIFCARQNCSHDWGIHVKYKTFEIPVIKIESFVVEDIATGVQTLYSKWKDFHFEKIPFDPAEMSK
Briefly: RNA sequencing of RNA bound to RIG-I (RIG-I pulldown) after IR. Format: binding. The method, then: Technically, identification of RNAs was performed as follows: […] Cambridge, Mass.). Twenty-four hours post-transfection, cells were either mock-irradiated or exposed to IR (6 Gy). […] Cell lysates were separated from cell debris by centrifugation at 12,000 rpm at 4° C. Protein concentration was measured by BCA kit. Anti-FLAG monoclonal antibody was added to the cell lysate at a 1:500 dilution, and incubated overnight at 4° C. Protein G sepharose beads were added to the lysates and incubated for at least 2 hours at 4° C. […] Proteinase K was added to the eluates and incubated at 50° C. for 45 minutes. Trizol reagent was then added to the solution, and RNA bound to RIG-I was purified following manufacturer's protocol. RNA quality was analyzed using an Agilent Bioanalyzer 2100 with Pico Series II cartridges. RNA yield was measured using the Qubit RNA Broad Range kit. For qRT-PCR validation experiments of RIG-I pulled down RNA, UV cross-linking (2 doses at 150 mJ/cm^2) was performed on HEK293 and HCT116 overexpressing RIG-I prior to cell lysis. The same protocol for pulldown and RNA purification experiments was performed as described above. We eluted total RNA and RNA bound to RIG-I from RIG-I over-expressing HEK293 cells 48 hours post IR (6 Gy). […] Libraries were sequenced on Illumina HiSeq2500 instrument to generate 50 bp pair-ended reads. Sequencing files in FastQ format were processed using AlienTrimmer (Criscuolo A and Brisse S, 2013) to remove adapter sequences and to trim low quality reads with Phred quality score <20. The preprocessed reads were aligned to the human reference genome (Ensembl GRCh38) using Spliced Transcripts Alignment to a Reference (STAR) software (Dobin et al., 2013). The featureCounts tool from Bioconductor package RSubread was used to summarize and quantify the abundances of genomic features of the mapped reads (Liao et al., 2013). Mapped reads were annotated using human GENCODE version 20 (Harrow et al., 2012) and were summarized to 35 gene/transcript and non-coding RNA biotypes annotated in GENCODE/Ensemble databases. RepEnrich program (Criscione et al., 2014) was used to identify and quantify the repetitive elements. The program uses Bowtie (Langmead et al., 2009) to align the reads to the human reference genome (Ensembl GRCh38) and human repetitive element pseudogenomes built upon […] annotation library hg38.fa.out.gz (available at […].org on the World Wide Web). The mapped reads were summarized by repetitive element subfamilies, families and classes (Tables 3, 4 and 5). […]

[1] abbreviates: Top 50 RIG-I binding RNAs, RepeatMasker annotations, RIG-I pulldown vs total RNA, HEK293, 48 h post IR (6 Gy).

Experimental findings from patent US20170268001A1, “RNAS WITH TUMOR RADIO/CHEMO-SENSITIZING AND IMMUNOMODULATORY PROPERTIES AND METHODS OF THEIR PREPARATION AND APPLICATION” (THE UNIVERSITY OF CHICAGO, priority 2016, published 2017) are described below.

On to U2: snRNA, SEQ ID NO:21, for which, for the setting “All mapped reads identified using RepeatMasker”, the log2FC is recorded as 5.983. In addition, where the note is “RepeatMasker annotations, mean of set 1 and set 2”, the “Mean log2FC” value came to 3.948. Under setting [1], the “log2FC (set 1)” value turned out to be 5.983 and the “log2FC (set 2)” value came out at 1.914.
